The target of one test is T1, BCL6 (Homo sapiens, UniProt P41182).
T1 construct: endogenous in cells; host or cells: SuDHL4 / SuDHL4Cas9 cells
The test can be described thus: Cellular fractionation and immunoblot of BCL6. The test is classed as cell-based. The conditions noted are these: SuDHL4 cells, 1 μM, 24 hours. On the procedure:
1×10^6 SuDHL4Cas9 cells were treated with DMSO or 1 μM BI-3802 for 24 h and fractionated using the CelLytic™NuCLEAR™Extraction Kit (Sigma-Aldrich) according to the manufacturer's protocol, resolved on a polyacrylamide gel, and immunoblotted for the indicated targets.
Background: In western blotting, separated proteins are transferred to a membrane and probed.

The next test concerns BCL6 mRNA. Put plainly: Quantitative PCR of BCL6 mRNA. The test is classed as cell-based, human. The conditions noted are these: SuDHL4Cas9 cells, 1 μM, 1 hour. Here is the method:
1×10^6 SuDHL4Cas99 cells were treated with DMSO or 1 μM BI-3802 for 1 h, collected by centrifugation, washed with PBS, and flash frozen in dry ice. mRNA was isolated using the QIAGEN RNA kit (Qiagen, 74106). For cDNA synthesis, total RNA was reverse transcribed with SuperScript™ VILO™ Master Mix (Invitrogen, 11755050) before qPCR analysis with TaqMan Fast Advanced Master Mix (ThermoFisher Scientific, 4444557) for BCL6 (TaqMan, […], Life Technologies) and GAPDH (TaqMan, Hs02758991_g1). Reactions were run and analyzed on QStudio 6 FLX real-Time PCR System (ThermoFisher Scientific).

Test [1] addresses T2, BCL6-eGFP fusion construct (Homo sapiens, UniProt P41182).
T2 construct: expressed in transfected cells; host or cells: HEK293TCas9 cells, lentiviral transduction (Cilantro2 vector)
Put plainly: Live cell imaging of BCL6-eGFP foci in HEK293T cells. The test is classed as cell-based. The conditions noted are these: HEK293T cells, full length BCL6 and eGFPBCL6^1-275, 1 μM. Here is the method:
1×10^3 HEK293T cells per cm^2 were seeded in a μ-Slide 8 Well chamber (ibidi) and cultured for 18-24 h under standard growth conditions. Cell culture medium was exchanged to CO2 independent media (Gibco) and imaged with the DeltaVision Ultra High-Resolution Microscope (GE Healthcare, 100×lens, oil refraction index=1.520). The following acquisition parameters were used: Image size […], binning 1×1, GFP exposure time 0.08 sec. and the Neutral Density (% T) filter 32%. To capture foci within all cell volume, around 26μm per cell was imaged every 0.4-0.5 μm. Images were deconvolved (10 cycles, conservative conditions) and projected using maximal intensity by softWoRx® 7.0.0. Images for movies were taken every 10 minutes and combined to a movie by QuickTime.

The next test has as its target T3, endogenous BCL6 (Homo sapiens, UniProt P41182).
T3 construct: endogenous in cells; host or cells: SuDHL4 / SuDHL4Cas9 cells
Put plainly: Immunofluorescence of endogenous BCL6 in SuDHL4 cells. The test is classed as cell-based. The conditions noted are these: 1 μM BI-3802, 1 hour. Here is the method: (§1) In vitro ubiquitination for identification of compatible E2 conjugating enzymes was performed by following the manufacturer's instructions (K-982, Boston Biochem), using Strep II-Avi-BCL6^5-360 and Flag-SIAH1^FL. Time-course in vitro ubiquitination was performed by mixing the substrate (BCL6, 2 μM), E3 (SIAH, 0.5 μM), E1 (UBA1, Boston Biochem, 0.2 μM, E2 (UBE2D1, Boston Biochem, 0.5 μM), and ubiquitin (Boston Biochem, 50 μM), with a reaction buffer (B-71, Boston Biochem) containing BI-3802 or DMSO (normalized to 1% DMSO) in 15 μL volume each. Reactions were initiated by adding 5 μL of Mg-ATP solution (B-20, Boston Biochem), incubated for up to 60 min at 37° C., and analyzed by western blot using Strep tag II Antibody HRP conjugate (71591-3, Sigma) at 1:4,000. 0.8×10^6 cells/mL SuDHL4 cells were treated with DMSO or 0.5 μM E1 Inhibitor (3 h)+1 μM BI-3802 (I h) and 200 μL of the cell suspension was immobilized on a slide using the Cytospin™ 4 Cytocentrifuge (CytoSpin 4, A78300003; 6000 rpm, 6 min). Medium was aspirated and cells were fixed with 4% formaldehyde diluted in warm PBS for 15 min at room temperature. Slides were washed three times for 5 min with PBS, blocked and permeabilized with blocking solution (5% Normal Goat Serum (Cell Signaling), 0.3% Triton X-100 in PBS) for 60 min and stained with anti-BCL6 antibody in blocking solution overnight at 4° C. […]

A further test concerns the target T4, BCL6^5-360 (Homo sapiens, UniProt P41182).
T4 construct: size-exclusion chromatogram of purified BCL6^5-360 in the presence of DMSO; made in house; host or cells: Trichoplusia ni High Five insect cells, baculovirus
Put plainly: Negative stain electron microscopy of BCL6. The test is classed as biochemical. The conditions noted are these: BCL6^5-360, 2 μM or 20 μM BI-3802. Here is the method:
The incubated protein samples were rapidly diluted to 10 μg/mL (sample treated with DMSO) or 50 μg/ml (samples treated with BI-3802). A 5 μL aliquot was applied to glow-discharged 400-mesh carbon-coated nickel grids (CF400-NI-UL, Electron Microscopy Sciences). After incubating for 1 min, protein was wicked off with a filter paper and the grid was washed twice with distilled water, followed by two rounds of staining with 2% uranyl acetate for 5 s and 20 s, respectively. Grids were imaged at a nominal magnification of 40,000× on a JEOL JEM-1400Plus operated at 80 kV.

Test [2] addresses T5, StrepBCL6^5-360 / full length SIAH1 (Homo sapiens, UniProt P41182).
T5 construct: using Strep II-Avi-BCL6^5-360 and Flag-SIAH1^FL; made in house; host or cells: Trichoplusia ni High Five insect cells, baculovirus
The test can be described thus: In vitro ubiquitination of BCL6 by SIAH1. The test is classed as biochemical. The conditions noted are these: recombinant polypeptides, 1 μM BI-3802 vs DMSO. On the procedure:
as §1

For test [3], the target named is T6, eGFPBCL6^1-275 and V5SIAH1 (Homo sapiens, UniProt P41182).
T6 construct: expressed in transfected cells; host or cells: HEK293TCas9 cells, lentiviral transduction
The test can be described thus: Immunofluorescence of SIAH1 and BCL6 foci in HEK293T cells. The test is classed as cell-based. The note with it: HEK293TCas9 cells, 0.5 μM MLN7243 pre-treatment 2 hours, 1 μM BI-3802 1 hour. On the procedure: HEK293TCas9 cells expressing eGFPBCL6^250 and eGFPBCL6^275 constructs were transduced with V5SIAH1^C44S (infection rate >70%). […] The cells were fixed with 4% formaldehyde for 15 min and permeabilized with 0.1% Triton X100 for 30 min. Epitopes were blocked with 10% BSA for 10 min. Anti-V5 antibodies were added and incubated on slides overnight at 4° C. After removal of the primary antibodies and washes, Alexa Fluor 633-conjugated anti-mouse antibodies were added and incubated at room temperature for 45 min. Finally, the slides were stained with DAPI (BD Biosciences, #564907, 1:5,000 in H2O) and mounted with SlowFader™ Diamond Antifade Mountant (Thermo Fisher Scientific, S36963). Cells were imaged with the Leica TCS SP5 confocal microscope.

In the next test the test system is lymphoma cells. The note with it: cited from earlier work.

With `CNC(=O)COc1cc2cc(Nc3nc(N4C[C@H](C)C[C@H](C)C4)ncc3Cl)ccc2n(C)c1=O` [BI-3802, 2-((6-((5-chloro-2-((3S,5R)-3,5-dimethylpiperidin-1-yl)pyrimidin-4-yl)amino)-1-methyl-2-oxo-1,2-dihydroquinolin-3-yl)oxy)-N-methylacetamide], the “chromatin-bound BCL6 level” value on BCL6 was “efficiently depleted chromatin-bound BCL6”. The “BCL6 mRNA expression” value with BCL6 mRNA is “did not alter BCL6 mRNA expression”. Further, the “eGFP-containing BCL6 foci formation” value in test [1] was “appearance of distinct eGFP-containing foci was observed within minutes”. The “endogenous BCL6 foci formation” value on endogenous BCL6 is given as “endogenous BCL6 also formed foci”. Moreover, at BCL6^5-360, the “higher-order BCL6 structures by negative stain EM” value is on record as “formation of regular structures with a sinusoidal shape was observed”. Moreover, in test [2], the “rate and magnitude of BCL6 ubiquitination by SIAH1” value is on record as “accelerated”. Also, the “SIAH1 colocalization to BCL6 foci” value in test [3] is “SIAH1 colocalized to BCL6 foci in a V×P motif dependent manner”. Besides, the “activity against lymphoma cells compared to BI-3812” value in the test with lymphoma cells is “markedly increased activity against lymphoma cells”.

These data come from patent publication US20220281931A1, “CHEMICALLY INDUCIBLE POLYPEPTIDE POLYMERIZATION” (Dana-Farber Cancer Institute, Inc., priority 2019, published 2022).
